According to patent US4195093A, “Furoyl- and thenoyl-aryloxyalkyl carboxylic acid derivatives, their preparation and their use in therapy” (Albert Rolland S.A., priority 1977, dated 1980):
Structures can show the parent of a compound that is named as a salt. Where two headings read alike, the source gives them in different places.

Legend:
[1] = Solubility in aqueous medium (statement); assay type: physicochemical
phenol red in the blood = assay: Uricosuric activity: retention of phenol red in the blood of rats; assay type: in vivo; conditions: Rattus norvegicus, read-out: Maximum Ratio measured (phenol red in blood, treated to non-treated)
Description: The uricosuric activity of the compounds has been shown by the method described by H. C. SCARBOROUGH and G. R. McKINNEY (J. Med. Pharm. Chem. (1962) 5 175) as well as by E. KREPPEL (Med. Exptl. (1959) 1 285); phenol red is administered intravenously to rats and the development of the concentration of this colourant in their blood is studied as a function of time. It is known that rats, which one hour before the beginning of the experiment have received an uricosuric agent, show, in comparison with non-treated animals, retention of phenol red in the blood.
The ratio is that of the concentrations of phenol red found in the blood of animals which have received the test compounds at the dose indicated at the specified time to the concentrations for non-treated animals.

[2] = Diuretic ability in mice (urine volume ratio treated/control); assay type: in vivo
Description: The diuretic ability of the novel compounds according to the invention has been studied in mice. It is expressed in Table III in the form of a ratio of the volume of urine for the treated animals received during 2 and 4 hours after administration (at the indicated dose) of the test compound to the volume measured under the same conditions for the control animals.

[3] = Acute toxicity orally in mice (method of BLISS); conditions: mouse, in vivo
Description: The acute toxicity of the new compounds has been studied in mice orally, according to the method of BLISS (Quart. J. Pharm. Pharmacol. (1938) 2 192-216); with the exception of the compounds in Examples 3 and 13, which have an LD50 in the region of 700 mg/kg, all the other compounds have an LD50 above 1000 mg/kg.

[4] = 0.25 h, 15 minutes after injection of the colourant
[5] = 0.75 h, 45 minutes after injection of the colourant
[6] = 1 h, 60 minutes after injection of the colourant

## O=C(O)COc1ccc(C(=O)c2cccs2)c2ccccc12 [tri(hydroxymethyl)methylamine salt]
[1]
  solubility in aqueous medium: particularly useful because of its solubility in aqueous medium

## O=C(O)COc1ccc(C(=O)c2cc3ccccc3o2)c2ccccc12 [Example 12]
Phenol red in the blood; [4]
  response vs control in vivo at 50 mg/kg: 51%

## O=C(O)COc1ccc(C(=O)c2ccoc2)c2ccccc12 [Example 3, [4-(3-Furoyl)-1-naphthlyloxy]-acetic acid]
[2]; 20 mg/kg p.o.
  Diuretic Ability, 0 to 2 hours (ratio of urine volume treated/control): 1.53
  Diuretic Ability, 0 to 4 hours (ratio of urine volume treated/control): 1.31
[2]; 50 mg/kg p.o.
  Diuretic Ability, 0 to 2 hours (ratio of urine volume treated/control): 1.48
  Diuretic Ability, 0 to 4 hours (ratio of urine volume treated/control): 1.44
[3]; mice, oral, method of BLISS
  LD50: ~700 mg/kg

## Cc1ccc(C(=O)c2ccc(OCC(=O)O)c3ccccc23)s1 [Example 7]
Phenol red in the blood; [4]
  response vs control in vivo at 100 mg/kg: 44%
[2]; 50 mg/kg p.o.
  Diuretic Ability, 0 to 2 hours (ratio of urine volume treated/control): 2.01
  Diuretic Ability, 0 to 4 hours (ratio of urine volume treated/control): 1.70

## CCc1oc2ccccc2c1C(=O)c1cc(I)c(O)c(I)c1 [benziodarone, 2-ethyl-3-(4-hydroxy-3,5-diiodobenzoyl)-benzo[b]furane, reference compound]
Phenol red in the blood; [5]
  response vs control in vivo at 100 mg/kg: 53%
[3]; po
  LD50: 1400 mg/kg

## O=C(O)COc1ccc(C(=NO)c2cccs2)c2ccccc12 [Example 2, [4-(2-Thienyl-hydroxyiminomethyl)-1-naphthyloxy]-acetic acid]
Phenol red in the blood; [5]
  response vs control in vivo at 100 mg/kg: 77%

## O=C(O)COc1c(Br)cc(C(=O)c2cccs2)c2ccccc12 [Example 6]
Phenol red in the blood; [6]
  response vs control in vivo at 50 mg/kg: 116%

## O=C(O)CCOc1ccc(C(=O)c2ccco2)c2ccccc12 [Example 14]
Phenol red in the blood; 1 h, dose 75 mg/kg, 60 minutes after injection of the colourant
  response vs control in vivo at 75 mg/kg: 80%

## O=C(O)COc1ccc(C(=O)c2ccsc2)c2ccccc12 [Example 10]
Phenol red in the blood; 0.5 h, 30 minutes after injection of the colourant
  response vs control in vivo at 100 mg/kg: 53%
[2]; 200 mg/kg p.o.
  Diuretic Ability, 0 to 2 hours (ratio of urine volume treated/control): 1.38
  Diuretic Ability, 0 to 4 hours (ratio of urine volume treated/control): 1.77

## O=C(O)CCOc1ccc(C(=O)c2cccs2)c2ccccc12 [Example 13]
[3]; mice, oral, method of BLISS
  LD50: ~700 mg/kg

## O=C(O)COc1ccc(C(=O)c2cccs2)c2ccccc12 [Example 1, [4-(2-Thenoyl)-1-naphthyloxy]-acetic acid]
Phenol red in the blood; [5]
  response vs control in vivo at 50 mg/kg: 100%
Phenol red in the blood; [6]
  response vs control in vivo at 100 mg/kg: 121%
